Test system: Staphylococcus aureus ATCC25923
Assay: Disc diffusion test of inhibition zone
Assay type: cell-based
Conditions: HN019 1×10^8 CFU; gentamicin 200 μg/mL; 37° C., 18 hours
Method: Discs were prepared with sterile filter paper, the test substances HMO (10 mg/mL, 30 mg/mL) or probiotic (1×10^8 CFU) were introduced thereto, and the discs were dried overnight under sterile conditions. Staphylococcus aureus ATCC25923 (1.0×10^6 CFU/mL) was uniformly applied on the surface of an NGM agar plate, and then the discs were placed on the surface of the inoculated agar plate. Gentamicin (200 μg/mL) was used as a positive control. All plates were incubated at 37° C. for 18 hours.

Substance: Gentamicin
- transparent inhibition zone around disc (direct antibacterial effect): formation of a transparent inhibition zone
